Several values for one entry are separate records, joined by “and”; a condition that tells them apart may be missing. Equal entries are not always repeated. Marks after values point to notes of the source that are not given here.
What was measured:
[1] = system: monobenzone-induced mouse vitiligo model; test: Monobenzone-induced mouse vitiligo model: skin pathological analysis of melanin-containing hair follicles; format: in vivo, C57BL/6 mice; details: 1.5% ruxolitinib ointment
Experimental: The mice were euthanized within 2-4 hours after the last administration, and approximately 1 cm^2 of the skin in the center of the depilated part of the mice was taken and fixed with 4% paraformaldehyde. The animal skin tissues were fixed with 4% paraformaldehyde, dehydrated, embedded with paraffin, sectioned and then subjected to HE staining. The stained sections were photographed by white light panoramic scanning, histopathological changes of the skin tissues and inflammatory cell infiltration were observed, and the number of melanin-containing hair follicles and/or the proportion of the melanin-containing hair follicles in the skin were quantitatively analyzed. The panoramic scanning files were opened by using CaseViewer software, a picture view with the length of about 3.8 mm was randomly selected, and the pictures were saved. The number of all the hair follicles and the number of the melanin-containing hair follicles in the picture were counted respectively by using ipwin32 software. The proportion of the melanin-containing hair follicles was calculated according to the following formula: Proportion of melanin-containing hair follicles = number of melanin-containing follicles/number of all follicles

[2] = system: monobenzone-induced mouse vitiligo model; test: Monobenzone-induced mouse vitiligo model: hair depigmentation area scoring; format: in vivo, C57BL/6 mice; design: Hair depigmentation area scoring: scale not given here
Experimental: • 1) Animals: C57BL/6 mice, specific pathogen-free (SPF), with equal numbers of females and males. The mice were 6-8 weeks old at grouping, with 10 mice per group. The animals were provided by Charles River Laboratories. • 2) Reagents, positive drugs and test drugs
Monobenzone induction method: after 1 week of adaptive feeding of all the animals, modeling was performed and all black hairs on the back of the mice were removed by a shaver. 10 animals were randomly selected as a normal control group and applied with 50 mg of vaseline once a day; and the remaining 80 animals were used for modeling and applied with 50 mg of 40% monobenzone depigmentation ointment once a day. The applying area of the normal control group and the model group was 2 cm*3 cm of the fixed part of the back, and the modeling was continuously performed for 103 days. In order to prevent the phenomenon that the animals lick the drugs, after the animals were applied with a modeling agent, they needed to be separately placed in an independent cage without padding for a period of time to naturally dry the modeling agent, and then they were placed in a rearing cage for normal rearing. During the modeling process, new hairs grown in the alopecic areas of the backs of the mice were shaved by the shaver and then applied with the drug.
The 40% monobenzone depigmentation ointment was applied every day. After modeling for 53 days, according to a depigmentation area score (see scoring criteria of Table 9), 70 animals successfully modeled in modeling group (score ≥ 2) were randomly divided into 7 groups with 10 mice per group. The mean depigmentation area score of the animals in each group was basically consistent before the administration, and the day of grouping was defined as day 0 of the administration treatment period. Table 8 Grouping and administration regimen
During the whole experiment process, the mice in normal control group (G1) were applied with 50 mg of vaseline once a day; and the mice in each model group (G2-G8) were applied with 50 mg of 40% monobenzone ointment once a day. After modeling for 53 days, the mice were grouped and subjected to drug treatment after grouping consecutively for 50 days. The modeling operation was maintained during the drug intervention period. The mice were applied with the drug twice a day for treatment at an interval of 6 hours or more. […]

[3] = system: imiquimod-induced C3H/HeJ mice alopecia areata model; test: Imiquimod-induced mouse alopecia areata model: hair growth; format: in vivo; details: Baricitinib 10 mg/kg oral by gavage twice a day for one month, Day 30; for Newly grown hair score: score 0-5
Experimental: • 1) Animals: female C3H/He mice, SPF, aged 6-8 weeks at grouping. The animals were provided by Beijing Viewsolid Biotech. • 2) Reagents, positive drugs and test drugs
After one week of adaptive feeding of C3H/HeJ mice: modeling was performed by applying imiquimod ointment to the neck, 3 times a week. The mice were carefully taken out, and about 0.05 g of 5% imiquimod ointment was dipped with a clean medical cotton swab and then applied evenly to the skin on the neck over a range of about 1.5 cm×1.5 cm. Before each application, the local part was cleaned by normal saline to remove the residual drug in the previous time. The continuous administration time was no longer than 10 weeks. When alopecia areata with an area size > 1 cm×1 cm was formed at the administration part, the administration was stopped, proving that a preparation model was successful. The mice in the normal control group were modeled by using blank ointment (vaseline ointment).
During the period from the first administration to the end of the last administration after the alopecia areata modeling was successful, the alopecia areata part of each mouse was photographed once every 3 days, the photographing distance, angle and magnification times were fixed, and the hair growth of the alopecic areas on the backs of the mice was recorded.
Visual quantification of the alopecia area images was performed using ImageJ software. The hair growth area (a) and hair loss area (b) were calculated. The hair growth rate was counted and analyzed: hair growth rate (%) = (a/b)* 100%. The newly grown hairs at the alopecia areata part of the mice in each group were scored based on the hair growth rate. Table 14 Scoring criteria of newly grown hairs

[4] = system: imiquimod-induced C3H/HeJ mice alopecia areata model; test: Imiquimod-induced mouse alopecia areata model: number of hair follicles in skin; format: in vivo; details: Baricitinib 10 mg/kg oral by gavage twice a day for one month, skin at alopecia areata part
Experimental: After the animals were anesthetized and euthanized, the complete skin tissue of the alopecic area was cut along the junction between the normal skin of the back of the mouse and the alopecic area and perpendicular to the skin surface. A part of the tissue was taken, conventionally dehydrated and embedded. The remaining tissue was stored in a refrigerator at -80°C for later use.
The embedded skin tissue was cut into 3 µm-thick sections, and then the sections were dewaxed in xylene, hydrated by gradient ethanol, H&E stained, dehydrated, cleared and mounted. The hair follicles in skin tissue sections from each group were microscopically observed and photographed. The mean number of the hair follicles was calculated using Image J software.

[5] = 30 mg topical twice a day for 50 days

N#CC[C@H](C1CCCC1)n1cc(-c2ncnc3[nH]ccc23)cn1 [ruxolitinib, reference compound]
number of the melanin-containing hair follicles, times that of the model control group [1]: about 6 times
Number of melanin-containing hair follicles [1, 5]: 41.7±16.7 and 41.7
Proportion of melanin-containing hair follicles (%) [1, 5]: 29.8 ± 9.9% and 29.8%
Hair depigmentation area scoring ([2]; Day 0 (before administration), 1.5% ruxolitinib ointment group): 3.90
Hair depigmentation area scoring ([2]; Day 10, 1.5% ruxolitinib ointment, 30 mg topical twice a day): 3.80 **
Hair depigmentation area scoring ([2]; Day 20, 1.5% ruxolitinib ointment, 30 mg topical twice a day): 3.70 **
Hair depigmentation area scoring ([2]; Day 30, 1.5% ruxolitinib ointment, 30 mg topical twice a day): 3.40 **
Hair depigmentation area scoring ([2]; Day 35, 1.5% ruxolitinib ointment, 30 mg topical twice a day): 2.90 **
Hair depigmentation area scoring ([2]; Day 38, 1.5% ruxolitinib ointment, 30 mg topical twice a day): 2.60 **
Hair depigmentation area scoring ([2]; Day 41, 1.5% ruxolitinib ointment, 30 mg topical twice a day): 2.40 **
Hair depigmentation area scoring ([2]; Day 44, 1.5% ruxolitinib ointment, 30 mg topical twice a day): 2.30 **
Hair depigmentation area scoring ([2]; Day 47, 1.5% ruxolitinib ointment, 30 mg topical twice a day): 2.20 **
Hair depigmentation area scoring ([2]; Day 50, 1.5% ruxolitinib ointment, 30 mg topical twice a day): 2.20 **
mean value of the reduction rate of the depigmentation area score ([2]; day 50, 1.5% ruxolitinib ointment, 30 mg (5 mg/cm^2) topical): 56.9%

C=CC[C@@H]1/C=C(\C)C[C@H](C)C[C@H](OC)[C@H]2O[C@@](O)(C(=O)C(=O)N3CCCC[C@H]3C(=O)O[C@H](/C(C)=C/[C@@H]3CC[C@@H](O)[C@H](OC)C3)[C@H](C)[C@@H](O)CC1=O)[C@H](C)C[C@@H]2OC [tacrolimus, reference compound]
Hair depigmentation area scoring ([2]; Day 0 (before administration), 0.03% tacrolimus ointment group): 3.60
Hair depigmentation area scoring ([2]; Day 10, 0.03% tacrolimus ointment, 30 mg topical twice a day): 3.50
Hair depigmentation area scoring ([2]; Day 20, 0.03% tacrolimus ointment, 30 mg topical twice a day): 3.40
Hair depigmentation area scoring ([2]; Day 30, 0.03% tacrolimus ointment, 30 mg topical twice a day): 3.40
Hair depigmentation area scoring ([2]; Day 35, 0.03% tacrolimus ointment, 30 mg topical twice a day): 2.60
Hair depigmentation area scoring ([2]; Day 38, 0.03% tacrolimus ointment, 30 mg topical twice a day): 2.50
Hair depigmentation area scoring ([2]; Day 41, 0.03% tacrolimus ointment, 30 mg topical twice a day): 2.30
Hair depigmentation area scoring ([2]; Day 44, 0.03% tacrolimus ointment, 30 mg topical twice a day): 2.20
Hair depigmentation area scoring ([2]; Day 47, 0.03% tacrolimus ointment, 30 mg topical twice a day): 2.20
Hair depigmentation area scoring ([2]; Day 50, 0.03% tacrolimus ointment, 30 mg topical twice a day): 2.20
reduction rate of the depigmentation area score ([2]; day 50, 0.03% tacrolimus ointment, compared with the model control group): 56.9%

CCS(=O)(=O)N1CC(CC#N)(n2cc(-c3ncnc4[nH]ccc34)cn2)C1 [Baricitinib, reference compound]
Hair growth rate (%) ([3]; listed as Positive control): 69.58 ± 3.23 %
Hair growth rate (%) ([3]; listed as positive drug): 69.58 ± 3.23%
Newly grown hair score ([3]; listed as Positive control): 4.2 ± 0.2
Newly grown hair score ([3]; listed as positive drug): 4.2 ± 0.2
Mean number of hair follicles ([4]; listed as Positive control): 40 ± 7.36
Mean number of hair follicles ([4]; listed as positive drug): 40 ± 7.36
